Literature values as cited in US8461106B2, “Biofilm prevention using lactoferrin” (The Trustees of the University of Pennsylvania, priority 2007, dated 2013).

Tested on: pseudomonas biofilms

gentamicin
MBEC for pseudomonas biofilms relative to MIC for planktonic pseudomonas: 60 fold
